# From patent US10081609B2, “Compounds for inducing proliferation and differentiation of cells, and methods of use thereof” (The Broad Institute, Inc., priority 2013, dated 2018)
# System: human primary hepatocytes
# Test: High-throughput liver platform, primary screening: secreted albumin by competitive ELISA
# Assay type: cell-based
# Description: In order to evaluate the phenotype of treated cells, a secondary readout was included to quantify hepatocyte functions via competitive ELISA. This biochemical assay measured the level of secreted albumin as a marker for protein synthesis functions of the cultured hepatocytes (FIG. 1A bottom).
# FIG. 1B top summarizes the workflow of the screen. Primary screening was done on human primary hepatocytes, preconditioned for seven days by non-parenchymal cells in the screening platform. Upon stabilization in vitro, cultures were treated with the chemical library for 48 hours. All compounds were tested in duplicates, at a single concentration of 15 μM. This single concentration was selected via a pilot screen of ˜2,000 small molecules. All 12,480 small molecules were initially tested on a single donor of cryopreserved hepatocytes (donor a) in order to eliminate noise from donor-to-donor variability. Following compound treatment, media supernatants were collected for functional analyses via ELISA and cultures were fixed in 4% paraformaldehyde for proliferation analyses via imaging.
smiles,measurement,value
"Cc1ccc(Cl)cc1N(CC(=O)Nc1c(F)cccc1F)S(C)(=O)=O [FPH2, 2-(N-(5-chloro-2-methylphenyl)methylsulfonamido)-N-(2,6-difluorophenyl)acetamide]",albumin secretion during primary screening,"similar, but weaker effects"
